Values of other authors, collected in patent US20220202008A1, “BAIT FOR A PEST” (FALCON LIFE SCIENCES LTD, priority 2020, published 2022).

Tested on: mouse
Details: acute dose

**Q.** Which LD50 does the source give for COC(C)(C)CCCC(C)CC=CC(C)=CC(=O)OC(C)C (stereo not shown) [methoprene, isopropyl 11-methoxy-3,7,11-trimethyldodeca-2,4-dienoate] here?
**A.** around 5000 ppm
